Measurements reported in publication PMC10051393, “Spectroscopic and Theoretical Analysis of the Interaction between Plasma Proteins and Phthalimide Analogs with Potential Medical Application” (Life, 2023).

Experiments:
[1] = target: T1, bovine serum albumin (BSA) (Bos taurus, UniProt P02769); test: intrinsic Trp fluorescence quenching, excitation […] nm; format: binding; settings: 297 K, pH 7.4, phosphate buffer, 1.0 μM protein, no site marker; double-log
T1 construct: gene ALB; native commercial protein (Sigma-Aldrich), untagged mature serum albumin

[2] = system: T2, α1-acid glycoprotein (AAG); orosomucoid; test: as above; format: binding; settings: 297 K, pH 7.4, phosphate buffer, 1.0 μM protein; double-log
T2 construct: gene ORM1; native commercial plasma glycoprotein (Sigma-Aldrich); ORM1 is the main plasma form

T1 sequence (P02769 25-607): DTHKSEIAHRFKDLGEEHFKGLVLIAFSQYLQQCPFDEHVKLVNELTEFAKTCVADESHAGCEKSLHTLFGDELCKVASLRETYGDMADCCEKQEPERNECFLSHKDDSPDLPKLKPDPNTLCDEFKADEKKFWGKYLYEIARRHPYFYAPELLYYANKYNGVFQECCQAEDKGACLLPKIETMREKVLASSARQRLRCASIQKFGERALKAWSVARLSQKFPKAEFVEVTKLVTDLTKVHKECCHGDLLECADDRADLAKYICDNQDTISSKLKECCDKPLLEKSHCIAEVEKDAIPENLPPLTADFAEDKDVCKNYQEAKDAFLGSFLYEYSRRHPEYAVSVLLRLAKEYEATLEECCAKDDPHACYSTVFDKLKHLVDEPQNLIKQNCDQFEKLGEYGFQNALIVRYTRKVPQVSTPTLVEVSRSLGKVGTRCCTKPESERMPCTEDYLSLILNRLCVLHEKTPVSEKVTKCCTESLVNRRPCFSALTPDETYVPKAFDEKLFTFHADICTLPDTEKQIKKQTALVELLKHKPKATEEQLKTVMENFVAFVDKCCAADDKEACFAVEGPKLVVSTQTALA

SMILES	Binding Parameters / Kb × 10^4 [L.mol^-1] [1]	Binding Parameters / Kb × 10^3 [L.mol^-1] [2]
O=C1c2ccccc2C(=O)N1CN1CCN(c2ccccc2)CC1 [A, compound A]	1.89 × 10^4 L·mol^−1	4.27 × 10^3 L·mol^−1
COc1ccccc1N1CCN(CN2C(=O)c3ccccc3C2=O)CC1 [B, compound B]	2.01 × 10^4 L·mol^−1	1.86 × 10^3 L·mol^−1
O=C1c2ccccc2C(=O)N1CN1CCN(c2cccc(C(F)(F)F)c2)CC1 [C, compound C]	43.61 × 10^4 L·mol^−1	1.48 × 10^3 L·mol^−1
O=C1c2ccccc2C(=O)N1CN1CCN(C(c2ccccc2)c2ccccc2)CC1 [D, compound D]	11.72 × 10^4 L·mol^−1	2.09 × 10^3 L·mol^−1
